Tests used:
Assay in all cases: in vivo ABPP coupled to quantitative mass spectrometry (FP-biotin, ReDiMe)
Conditions in all cases: brain proteomes of treated mice
ABHD2 = ABHD2 (Mus musculus (Mouse), UniProt Q9QXM0)
Protocol: (§1) The extent of these target profiles were confirmed by performing ABPP coupled to high-resolution, quantitative mass spectrometry (MS). Briefly, brain proteomes from compound and vehicle-treated mice were incubated with the serine hydrolase directed activity-based probe FP-biotin, and probe-labeled enzymes were enriched by streptavidin chromatography, digested on bead with trypsin, and the resulting tryptic peptides modified by reductive dimethylation (ReDiMe) of lysine residues using isotopically heavy and light formaldehyde, respectively. In these experiments, inhibited serine hydrolases are identified as enzymes showing low heavy/light ReDiMe ratios.

PAFAH2 = PAFAH2 (Mus musculus (Mouse), UniProt Q8VDG7)
Protocol: as §1

PLA2G7 = PLA2G7 (Mus musculus (Mouse), UniProt Q60963)
Protocol: as §1

BCHE = BCHE (Mus musculus (Mouse), UniProt Q03311)
Protocol: as §1

LIPE = LIPE (Mus musculus (Mouse), UniProt P54310)
Protocol: as §1

ABHD2, sequence (Q9QXM0 whole entry): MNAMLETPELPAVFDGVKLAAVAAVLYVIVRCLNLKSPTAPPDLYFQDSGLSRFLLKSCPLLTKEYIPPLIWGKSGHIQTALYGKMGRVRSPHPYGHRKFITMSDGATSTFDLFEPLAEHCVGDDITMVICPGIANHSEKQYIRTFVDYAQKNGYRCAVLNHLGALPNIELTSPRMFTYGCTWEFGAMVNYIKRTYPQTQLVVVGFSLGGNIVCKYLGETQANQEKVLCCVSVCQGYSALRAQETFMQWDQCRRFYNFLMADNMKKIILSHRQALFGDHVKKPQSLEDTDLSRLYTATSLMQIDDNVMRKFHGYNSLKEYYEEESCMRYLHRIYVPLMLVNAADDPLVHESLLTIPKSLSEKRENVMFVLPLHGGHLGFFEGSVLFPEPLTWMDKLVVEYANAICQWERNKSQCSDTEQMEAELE
BCHE, sequence (Q03311 30-603 limits assumed): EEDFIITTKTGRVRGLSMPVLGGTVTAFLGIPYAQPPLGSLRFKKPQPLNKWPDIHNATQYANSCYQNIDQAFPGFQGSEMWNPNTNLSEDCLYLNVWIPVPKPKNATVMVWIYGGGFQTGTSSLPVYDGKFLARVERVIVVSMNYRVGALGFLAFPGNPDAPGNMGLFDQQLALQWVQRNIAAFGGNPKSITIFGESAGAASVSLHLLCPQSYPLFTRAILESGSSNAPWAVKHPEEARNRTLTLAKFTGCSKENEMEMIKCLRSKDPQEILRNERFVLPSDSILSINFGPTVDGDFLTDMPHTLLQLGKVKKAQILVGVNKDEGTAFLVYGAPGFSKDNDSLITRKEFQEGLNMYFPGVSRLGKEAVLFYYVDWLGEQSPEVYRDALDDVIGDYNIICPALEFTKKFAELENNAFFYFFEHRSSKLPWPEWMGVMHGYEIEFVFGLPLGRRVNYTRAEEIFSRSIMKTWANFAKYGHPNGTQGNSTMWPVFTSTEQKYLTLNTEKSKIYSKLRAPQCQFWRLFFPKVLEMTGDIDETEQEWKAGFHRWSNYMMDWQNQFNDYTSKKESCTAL
PAFAH2, sequence (Q8VDG7 whole entry): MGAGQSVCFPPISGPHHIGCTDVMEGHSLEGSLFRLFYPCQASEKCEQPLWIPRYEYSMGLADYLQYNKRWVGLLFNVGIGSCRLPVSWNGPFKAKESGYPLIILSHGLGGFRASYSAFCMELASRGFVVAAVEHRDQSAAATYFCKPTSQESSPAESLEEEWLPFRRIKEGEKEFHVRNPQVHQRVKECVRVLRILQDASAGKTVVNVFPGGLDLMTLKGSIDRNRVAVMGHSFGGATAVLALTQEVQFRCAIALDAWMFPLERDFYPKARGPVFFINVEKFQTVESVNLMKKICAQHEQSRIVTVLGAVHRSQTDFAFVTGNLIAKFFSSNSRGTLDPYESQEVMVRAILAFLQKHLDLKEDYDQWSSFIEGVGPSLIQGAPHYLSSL
LIPE, sequence (P54310 whole entry): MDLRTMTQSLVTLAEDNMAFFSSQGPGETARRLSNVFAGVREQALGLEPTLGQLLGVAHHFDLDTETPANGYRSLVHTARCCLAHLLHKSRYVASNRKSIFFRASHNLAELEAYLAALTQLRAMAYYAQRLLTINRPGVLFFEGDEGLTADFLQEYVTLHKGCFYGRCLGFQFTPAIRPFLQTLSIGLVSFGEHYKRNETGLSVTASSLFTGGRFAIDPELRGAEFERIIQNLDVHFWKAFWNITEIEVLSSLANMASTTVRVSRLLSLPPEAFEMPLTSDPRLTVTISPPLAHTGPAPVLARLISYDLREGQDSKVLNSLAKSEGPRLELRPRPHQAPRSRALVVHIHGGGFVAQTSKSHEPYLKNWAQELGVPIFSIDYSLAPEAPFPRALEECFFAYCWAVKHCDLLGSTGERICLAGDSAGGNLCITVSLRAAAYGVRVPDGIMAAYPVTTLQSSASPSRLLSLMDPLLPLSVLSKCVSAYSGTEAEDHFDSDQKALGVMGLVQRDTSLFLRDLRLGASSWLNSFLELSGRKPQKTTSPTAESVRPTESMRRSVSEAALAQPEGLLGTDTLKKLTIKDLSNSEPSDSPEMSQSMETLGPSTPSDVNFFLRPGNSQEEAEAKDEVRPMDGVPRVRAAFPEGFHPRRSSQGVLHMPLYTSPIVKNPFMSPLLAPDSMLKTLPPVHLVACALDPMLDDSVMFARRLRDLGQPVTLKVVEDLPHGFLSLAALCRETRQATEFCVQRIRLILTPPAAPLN
PLA2G7, sequence (Q60963 22-440): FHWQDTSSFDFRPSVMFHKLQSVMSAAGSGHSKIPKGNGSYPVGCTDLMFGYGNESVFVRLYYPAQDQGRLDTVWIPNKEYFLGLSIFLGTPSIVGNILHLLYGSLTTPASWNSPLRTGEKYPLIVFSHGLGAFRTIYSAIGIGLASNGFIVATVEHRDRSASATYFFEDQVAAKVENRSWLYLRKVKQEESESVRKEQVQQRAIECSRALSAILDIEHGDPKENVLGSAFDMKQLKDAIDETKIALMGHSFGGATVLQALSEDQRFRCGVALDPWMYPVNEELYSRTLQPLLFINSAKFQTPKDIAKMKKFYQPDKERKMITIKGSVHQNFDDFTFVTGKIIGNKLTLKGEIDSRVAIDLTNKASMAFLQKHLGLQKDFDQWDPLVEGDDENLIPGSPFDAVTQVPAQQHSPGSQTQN

Row | SMILES | heavy/light ReDiMe ratio, ABHD2 (off-target) (ABHD2) | heavy/light ReDiMe ratio, PAFAH2 (off-target) (PAFAH2) | heavy/light ReDiMe ratio, PLA2G7 (off-target) (PLA2G7) | heavy/light ReDiMe ratio, BCHE (off-target) (BCHE) | heavy/light ReDiMe ratio, LIPE (off-target) (LIPE)
1 | CC(C)(C)OC(=O)N1CCN(C(=O)n2cc(-c3ccc(OC(F)(F)F)cc3)nn2)C(Cc2ccccc2)C1 (centres unmarked) [Compound 17, tert-Butyl 3-benzyl-4-(4-(4-(trifluoromethoxy)phenyl)-1H-1,2,3-triazole-1-carbonyl)piperazine-1-carboxylate] | < 0.5 | < 0.5 | < 0.5 |  | 
2 | C#CCO[C@@H]1CC[C@H](Cc2ccccc2)N(C(=O)n2ncc(C(O)(c3ccc(F)cc3)c3ccc(F)cc3)n2)C1 [Compound 14, ((2R,5R)-2-Benzyl-5-(prop-2-ynyloxy)piperidin-1-yl)(4-(bis(4-fluorophenyl)(hydroxy)methyl)-2H-1,2,3-triazol-2-yl)methanone] |  |  |  | < 0.5 | < 0.5

Reference: US10583137B2, “Triazole DAGLα inhibitors” (THE SCRIPPS RESEARCH INSTITUTE, priority 2015, dated 2020)
